Values quoted from earlier work, collected in US12533388B2, “Compositions and methods for prevention and treatment of immune deficiency and inflammation” (The United States GOVERNMENT As Represented By The …, priority 2020, dated 2026).

What was measured:
Saccharomyces cerevisae = settings: by inhibiting chitinase
[1] = system: STZ-induced diabetic mice; settings: as compared to the STZ-induced diabetic control group without CHP treatment
[2] = system: rat insulinoma cells (RINm5F); settings: in vitro

Structure (SMILES): O=C1N[C@@H](Cc2cnc[nH]2)C(=O)N2CCC[C@@H]12 [CHP, Cyclo (His-Pro)]
- growth of Saccharomyces cerevisae (Saccharomyces cerevisae): inhibit
- Oral glucose tolerance test (OGTT) values [1]: significantly decreased
- plasma glucose levels dropped [1]: 60%
- STZ-induced cytotoxicity and apoptosis [2]: prevented
